According to ChEMBL document CHEMBL6134807, “A review-plant medicine and its extraction components inhibit influenza virus” (Bioorg Med Chem Lett, 2025):

What follows are molecules tested on Influenza B virus (assay: Antiviral activity against Influenza virus […] B/Panama/45/1990 infected in MDCK cells at 0.001 MOI assessed as inhibition of virus cytopathic effect measured after 48 hrs by crystal violet staining based assay). Settings: B/Panama/45/1990, MDCK.
Assay type: functional, organism-based

Going from `O=C(O[C@@H]1Cc2c(O)cc(O)cc2O[C@@H]1c1cc(O)c(O)c(O)c1)c1cc(O)c(O)c(O)c1` [EPIGALOCATECHIN GALLATE] to `O=C(O[C@@H]1Cc2c(O)cc(O)cc2O[C@@H]1c1ccc(O)c(O)c1)c1cc(O)c(O)c(O)c1` [EPICATECHIN GALLATE], the EC50 rises from 5.7 µM to 22 µM (3.9-fold). The first is the more potent here.

`COc1cc(/C=C/C(=O)CC(=O)/C=C/c2ccc(O)c(OC)c2)ccc1O` [CURCUMIN] was tested, and the EC50 was 0.47 µM.
